From US20060154243A1 (priority 2003, published 2006) come the findings set out here.

Test [1] relates to control serum Blood-bank (commercial negative donor pooled serum). It is filed as binding, human.
The subject of test [2] is sera SARS-green, SARS-yellow, 1a, 1b, 2, 6, 37, 62 and London. It is filed as binding, human.
Test [3] deals with rabbit serum obtained by immunizing with SARS-CoV strain Frankfurt 1. It is filed as binding.
Test [4] deals with control serum LUMC (pooled serum of ten healthy hospital workers). It is filed as binding, human.

On to IIFWFSLEIQDLEEP, for which, in test [1], the “Control Serum Blood-Bank Looped peptides” value is reported as 0.9 and the “Control serum Blood-bank linear peptides” value was determined as 0.9. In addition, in test [2], the “Recognition of the peptide by sera of individuals infected by SARS-CoV, form recognized” value (from here on “Recognition of the peptide”) is “recognized in linear and in looped form”. For the same sequence, in test [3], the “Rabbit serum linear peptides” value came out at 0.4 and the “Rabbit serum looped peptides” value was determined as 0.0. Also, in test [4], the “Control serum LUMC linear peptides” value is 0.7 and the “Control serum LUMC looped peptides” value came to 0.8.
As to LIMLIIFWFSLEIQD, in test [1], the “Control Serum Blood-Bank Looped peptides” value was 0.7 and the “Control serum Blood-bank linear peptides” value is reported as 0.9. Further, the “Recognition of the peptide” value in test [2] was “recognized in linear and in looped form”. Further, in test [3], the “Rabbit serum linear peptides” value amounted to 0.4 and the “Rabbit serum looped peptides” value came to 0.6. In test [4], the “Control serum LUMC linear peptides” value was determined as 1.1 and the “Control serum LUMC looped peptides” value is given as 0.7.
On to FSLEIQDLEEPCTKV, for which, in test [1], the “Control Serum Blood-Bank Looped peptides” value stood at 1.0 and the “Control serum Blood-bank linear peptides” value amounted to 0.7. Besides, the “Recognition of the peptide” value in test [2] is “recognized in linear and in looped form”. In test [3], the “Rabbit serum linear peptides” value came out at 0.4 and the “Rabbit serum looped peptides” value is on record as 0.5. Moreover, in test [4], the “Control serum LUMC linear peptides” value stood at 0.6 and the “Control serum LUMC looped peptides” value is 0.7.
As for TITRMEDAMGQGQNS, the “Recognition of the peptide” value in test [2] is on record as “only recognized in looped form”. Also, in test [3], the “Rabbit serum linear peptides” value turned out to be 0.1 and the “Rabbit serum looped peptides” value amounted to 0.6.
SCICTVVQRCASNKP: the “Recognition of the peptide” value in test [2] is “recognized in linear and in looped form”. In test [3], the “Rabbit serum linear peptides” value is reported as 0.0 and the “Rabbit serum looped peptides” value is given as 0.8.
As for DPNQTNVVPPALHLV, the “Recognition of the peptide” value in test [2] was “recognized in linear and in looped form”. For the same sequence, in test [3], the “Rabbit serum linear peptides” value was 2.3 and the “Rabbit serum looped peptides” value was found to be 0.2.
On to VVQRCASNKPHVLED, for which the “Recognition of the peptide” value in test [2] is “recognized in linear and in looped form”. In test [3], the “Rabbit serum linear peptides” value worked out at 0.2 and the “Rabbit serum looped peptides” value came to 0.5.
As to TKLATTEELPDEFVV, in test [2], the “Recognition of the peptide” value was “recognized in linear and in looped form”. Further, in test [3], the “Rabbit serum linear peptides” value is 0.1 and the “Rabbit serum looped peptides” value is 0.6.
For the sequence PPALHLVDPQIQLTI, in test [2], the “Recognition of the peptide” value is “recognized in linear and in looped form”. In test [3], the “Rabbit serum linear peptides” value stood at 0.2 and the “Rabbit serum looped peptides” value came out at 0.3.
Take QRCASNKPHVLEDPC: in test [2], the “Recognition of the peptide” value is “recognized in linear and in looped form”. For the same sequence, in test [3], the “Rabbit serum linear peptides” value stood at 0.1 and the “Rabbit serum looped peptides” value is listed as 0.5.
In the case of VVQMTKLATTEELPD, the “Recognition of the peptide” value in test [2] was “recognized in linear and in looped form”. Further, in test [3], the “Rabbit serum linear peptides” value turned out to be 0.3 and the “Rabbit serum looped peptides” value stood at 0.6.
Consider RCASNKPHVLEDPCK, for which, in test [2], the “Recognition of the peptide” value is “recognized in linear and in looped form”. In test [3], the “Rabbit serum linear peptides” value came out at 0.1 and the “Rabbit serum looped peptides” value is on record as 0.6.
Take TRMEDAMGQGQNSAD: the “Recognition of the peptide” value in test [2] was “only recognized in looped form”. In test [3], the “Rabbit serum linear peptides” value is recorded as 0.4 and the “Rabbit serum looped peptides” value is 0.4.
As to LTITRMEDAMGQGQN, the “Recognition of the peptide” value in test [2] is “only recognized in looped form”. Besides, in test [3], the “Rabbit serum linear peptides” value is 0.3 and the “Rabbit serum looped peptides” value came to 0.3.
For PNQTNVVPPALHLVD, the “Recognition of the peptide” value in test [2] is “recognized in linear and in looped form”. Also, in test [3], the “Rabbit serum linear peptides” value stood at 0.4 and the “Rabbit serum looped peptides” value is recorded as 0.2.
